Experimental data as given in patent publication US11998532B1 (priority 2023, dated 2024).
Values after ≈ are worked out from the molar mass of the structure shown.

test system: multidrug-resistant (MDR) strains of Mycobacterium tuberculosis; experiment: microbe, parasite or virus in culture; assay type: cell-based; details: 192 h, read-out: MIC MDR-TB

Compared with COc1ccc(Cl)cc1-n1ncc(-c2nnc(-c3ccc(Cl)cc3)o2)c1C [Compound 7a, 2-(1-(5-Chloro-2-methoxyphenyl)-5-methyl-1H-pyrazol-4-yl)-5-(4-chlorophenyl)-1,3,4-oxadiazole], COc1ccc(Cl)cc1-n1ncc(-c2nnc(-c3ccc(F)cc3)o2)c1C [Compound 7b, 2-(1-(5-Chloro-2-methoxyphenyl)-5-methyl-1H-pyrazol-4-yl)-5-(4-fluorophenyl)-1,3,4-oxadiazole] is 2-fold lower in MIC: 16 µg/mL (≈ 39.9 µM) for the first, 8 µg/mL (≈ 20.8 µM) for the second.

COc1ccc(Cl)cc1-n1ncc(-c2nnc(-c3ccc(C)c(Br)c3)o2)c1C [Compound 7c, 2-(3-Bromo-4-methylphenyl)-5-(1-(5-chloro-2-methoxyphenyl)-5-methyl-1H-pyrazol-4-yl)-1,3,4-oxadiazole] and COc1ccc(Cl)cc1-n1ncc(-c2nnc(-c3ccc(Br)c(C)c3)o2)c1C [Compound 7f, 2-(4-Bromo-3-methylphenyl)-5-(1-(5-chloro-2-methoxyphenyl)-5-methyl-1H-pyrazol-4-yl)-1,3,4-oxadiazole] are the same in MIC: 64 µg/mL (≈ 139 µM) for the first, 64 µg/mL (≈ 139 µM) for the second.

COc1ccc(Cl)cc1-n1ncc(-c2nnc(-c3ccccc3)o2)c1C [Compound 7d, 2-(1-(5-Chloro-2-methoxyphenyl)-5-methyl-1H-pyrazol-4-yl)-5-phenyl-1,3,4-oxadiazole] and COc1ccc(Cl)cc1-n1ncc(-c2nnc(-c3cccc(F)c3)o2)c1C [Compound 7g, 2-(1-(5-Chloro-2-methoxyphenyl)-5-methyl-1H-pyrazol-4-yl)-5-(3-fluorophenyl)-1,3,4-oxadiazole] are the same in MIC: 32 µg/mL (≈ 87.2 µM) for the first, 32 µg/mL (≈ 83.2 µM) for the second.

Going from COc1ccc(Cl)cc1-n1ncc(-c2nnc(-c3ccc(Br)cc3)o2)c1C [Compound 7e, 2-(4-Bromophenyl)-5-(1-(5-chloro-2-methoxyphenyl)-5-methyl-1H-pyrazol-4-yl)-1,3,4-oxadiazole] to COc1ccc(Cl)cc1-n1ncc(-c2nnc(-c3ccc(Cl)c(Cl)c3)o2)c1C [Compound 7i, 2-(1-(5-Chloro-2-methoxyphenyl)-5-methyl-1H-pyrazol-4-yl)-5-(3,4-dichlorophenyl)-1,3,4-oxadiazole], the MIC rises from 16 µg/mL (≈ 35.9 µM) to 32 µg/mL (≈ 73.4 µM) (2-fold).

Going from COc1ccc(Cl)cc1-n1ncc(-c2nnc(-c3cc(Cl)cc(Cl)c3)o2)c1C [Compound 7h, 2-(1-(5-Chloro-2-methoxyphenyl)-5-methyl-1H-pyrazol-4-yl)-5-(3,5-dichlorophenyl)-1,3,4-oxadiazole] to COc1ccc(Cl)cc1-n1ncc(-c2nnc(-c3ccc(C)c([N+](=O)[O-])c3)o2)c1C [Compound 7j, 2-(1-(5-Chloro-2-methoxyphenyl)-5-methyl-1H-pyrazol-4-yl)-5-(4-methyl-3-nitrophenyl)-1,3,4-oxadiazole], the MIC rises from 16 µg/mL (≈ 36.7 µM) to 64 µg/mL (≈ 150 µM) (4-fold).
